Test results reported in US7169966B2, “Salicylic acid-binding protein encoding nucleic acid, SABP2, and methods of use thereof” (Boyce Thompson Institute for Plant Research, Inc., priority 2001, dated 2007).

Columns and labels:
[1] = molecular target: T1, AtSB2L1 (Arabidopsis thaliana, UniProt Q8S8S9); experiment: [3H] salicylic acid-binding assay with unlabeled competitors, Arabidopsis homolog produced in E. coli; settings: 1 mM unlabeled competitor; protein produced in E. coli; no competitor = 70 dpm
T1 construct: made in house
T1 sequence (Q8S8S9 1-263): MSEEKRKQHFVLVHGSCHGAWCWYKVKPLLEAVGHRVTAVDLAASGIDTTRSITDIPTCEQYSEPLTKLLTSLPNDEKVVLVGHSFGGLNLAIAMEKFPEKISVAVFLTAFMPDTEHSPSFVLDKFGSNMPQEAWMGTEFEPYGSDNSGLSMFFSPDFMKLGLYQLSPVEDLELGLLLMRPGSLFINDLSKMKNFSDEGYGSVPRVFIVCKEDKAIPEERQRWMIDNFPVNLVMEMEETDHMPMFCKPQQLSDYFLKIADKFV
Procedure: (§1) [^3H] Salicylic acid-binding assay: The protein extracts/fractions were mixed with 0.1 μM [^3H]-SA (23.6 Ci/mmol) (custom synthesized by NEN Life Science Products) in Buffer A to bring the total volume of the reaction mixture to 150 μl. The extracts were then incubated on ice for 60 minutes. Spin columns were prepared by packing Sephadex G-25 fine (Pharmacia) equilibrated with Buffer A into 1 ml disposable syringe barrels. The G-25 was packed to 1 ml and equilibrated by centrifuging at 1000 g for 4 minutes in a H-1000B rotor (Sorvall) at 4° C. The entire binding mixture was loaded onto the column and centrifuged under similar conditions. Bound [^3H]-SA which is present in the flow through, was mixed with 4 ml scintillation cocktail (Ecolite, ICN) and measured in a liquid scintillation counter. Appropriate controls were also assayed.
(§2) To rigorously establish that the 28 KDa protein from plant extract was SABP2, the cloned cDNA was expressed in E. coli as His6-tagged fusion protein and the recombinant protein was purified on a Ni column and tested for SA-binding activity (Table IV).

[2] = molecular target: T2, AtSB2L5 (Arabidopsis thaliana, UniProt Q9LFT6); experiment: as above; settings: 1 mM unlabeled competitor; protein produced in E. coli; no competitor = 12927 dpm
T2 construct: made in house; host or cells: E. coli
T2 sequence (Q9LFT6 1-258): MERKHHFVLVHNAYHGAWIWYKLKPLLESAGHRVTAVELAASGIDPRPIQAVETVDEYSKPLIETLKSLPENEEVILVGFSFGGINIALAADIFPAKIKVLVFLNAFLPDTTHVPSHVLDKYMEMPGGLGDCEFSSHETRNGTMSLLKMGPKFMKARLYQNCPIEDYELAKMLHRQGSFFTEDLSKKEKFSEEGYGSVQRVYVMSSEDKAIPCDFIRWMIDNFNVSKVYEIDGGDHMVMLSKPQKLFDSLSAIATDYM
Procedure: as §1, §2

[3] = molecular target: T3, AtSB2L9 (Arabidopsis thaliana, UniProt O23171); experiment: as above; settings: 1 mM unlabeled competitor; protein produced in E. coli; no competitor = 16486 dpm
T3 construct: made in house; host or cells: E. coli
T3 sequence (O23171 1-256): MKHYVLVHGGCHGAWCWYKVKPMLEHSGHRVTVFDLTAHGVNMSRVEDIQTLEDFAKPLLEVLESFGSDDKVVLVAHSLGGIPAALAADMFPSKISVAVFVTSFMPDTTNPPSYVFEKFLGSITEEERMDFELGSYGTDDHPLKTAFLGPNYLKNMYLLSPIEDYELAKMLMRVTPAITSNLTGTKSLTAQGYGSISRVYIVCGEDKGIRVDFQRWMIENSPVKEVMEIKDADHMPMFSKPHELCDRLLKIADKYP
Procedure: as §1, §2

[4] = test system: PR genes; settings: for induction of PR genes or enhanced disease resistance; cited from earlier work
[5] = molecular target: T4, SABP2 (Nicotiana tabacum, UniProt Q6RYA0); experiment: [3H] salicylic acid-binding assay with unlabeled competitors, recombinant His6-SABP2 produced in E. coli; design: Full-length tobacco SABP2 was PCR amplified; His6 (N); made in house; host or cells: E. coli BL21 (DE3), vector pET28a; species or system tobacco (Nicotiana tabacum); settings: for Bound [^3H] SA SABP2: 1 mM unlabeled competitor, protein produced in E. coli, no competitor = 140206 dpm; for binding to SABP2 (in words): recombinant, purified SABP2; for inhibition of ^3H-SA binding by unlabeled competitor (in words): large molar excess of unlabeled competitor, recombinant His6-tagged protein
T4 sequence (Q6RYA0 1-260): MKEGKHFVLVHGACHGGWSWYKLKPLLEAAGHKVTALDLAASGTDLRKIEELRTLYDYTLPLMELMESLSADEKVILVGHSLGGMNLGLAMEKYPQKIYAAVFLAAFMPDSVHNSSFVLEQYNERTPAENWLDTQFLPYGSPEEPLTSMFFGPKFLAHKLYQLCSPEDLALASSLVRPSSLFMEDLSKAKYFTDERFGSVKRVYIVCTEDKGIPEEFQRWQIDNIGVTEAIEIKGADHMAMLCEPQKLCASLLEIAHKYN
Procedure: as §1
Expression of Recombinant SABP2 in E. coli. Full-length tobacco SABP2 was PCR amplified to introduce BamH1 enzyme sites at both ends using the primers F2 ([…]) (SEQ ID NO:51) and F3 ([…]) (SEQ ID NO:52). The amplified product was cloned into the BamH1 site of pET28a (Novagen) and sequenced. Recombinant SABP2 (rSABP2) was synthesized as a soluble protein in E. coli strain BL21 (DE3) and affinity purified by Ni-NTA agarose chromatography (Novagen) as described by the manufacturer. rSABP2 was further purified on a Mono Q column as described earlier.
as §2

[6] = test system: SABP2 expression; experiment: Induction of SABP2 expression in plants by chemical treatment; format: in vivo, tobacco; settings: without TMV infection
Description: Expression studies have been initiated and already indicate that the tobacco SABP2 and one of its putative Arabidopsis ortholog, AtSB2L9, are induced in plants resisting infection by viral [tobacco mosaic virus(TMV) or turnip crinkle virus (TCV)] or bacterial (P. s.) pathogens. These studies can be extended to other plant-pathogen interactions, e.g. P. s. pv tabaci, and P.s. pv tomato with or without AvrPto in tomato or Pto-transformed Nicotiana benthamiana, for SABP2 and P. s. and Peronospora parasitica for AtSB2L5, AtSB2L9, and other putative orthologs in Arabidopsis. […] Therefore, induction of SABP2 and its Arabidopsis ortholog(s) by ethylene can be tested in a similar fashion.

[7] = molecular target: T4, SABP2; experiment: SA / analog binding to SABP2 isolated from tobacco plant extracts; design: from tissue; host or cells: tobacco leaves, partially purified extract
Description: (§3) SA is a key component in the signal transduction pathway(s) leading to activation of certain defense responses in plants after pathogen attack. Previous studies have identified several proteins, including catalase and ascorbate peroxidase, through which the SA signal might act. A novel nucleic acid molecule encoding the SA-binding protein 2, SABP2, is described herein. SABP2 was identified through the use of a high specific activity ligand, [^3H]-SA (15–30 Ci/mmole). […] For example, SABP2 is much less abundant in leaf tissue than the catalase, and has an apparent native mass (Mr) of between about 20 and 40 kDa, as compared with the native molecular mass of catalase, which is approximately 240 kDa.
(§4) As one example, assays for SA analogues may be based on the ability of analogues to bind SABP2 or to compete with SA for binding to SABP2. […] Since SABP2 is part of the signal transduction pathway leading to disease resistance, it may be possible to enhance induction of disease resistance using analogues of SA which are not readily metabolized by the plants. […] This glucoside is not active for induction of disease resistance.
(§5) [^3H] […] Bound [^3H]-SA which is present in the flow through, was mixed with 4 ml scintillation cocktail (Ecolite, ICN) and measured in a liquid scintillation counter. […]

[8] = molecular target: T4, SABP2; design: from tissue; host or cells: tobacco leaves, partially purified extract; settings: partially purified plant extracts; more avidly than SA (Du and Klessig, 1997); cited from earlier work
[9] = test system: SABP2; experiment: SA / analog binding to SABP2 isolated from tobacco plant extracts; settings: fold higher
Description: as §3, §4, §5

[10] = molecular target: lipase from Mucor meihei (Rhizomucor miehei, UniProt P19515); experiment: Lipase activity assay with or without SA, control lipase; format: biochemical; settings: data not shown
Procedure: Since SABP2 contains the catalytic triad and the lipase signature sequence, the recombinant protein was tested for lipase activity. […] Addition of SA to the reaction stimulated lipase activity 3–6 fold (FIG. 6B). This stimulation required SA binding to SABP2, since it was abolished in reaction conditions that prevented SA binding. […] The lipase activity assay was performed as described by Yang et al. with modifications to allow SA binding to SABP2. The standard 1 ml assay mixture consisted of 1 mM substrate in 50 mM Bicine pH 8.0, 0.05% Triton-X100. Following a 60 min preincubation on ice in absence or presence of 1 mM SA, the reaction was allowed to proceed at 24° C. for 60 min. A 100 mM stock solution of p-NPM or p-NPP was prepared in acetonitrile. Lipase activity was estimated colorimetrically (Unicom UV1, Spectronic Unicom, UK) by measuring the liberation of para-nitrophenol from p-NPP or p-NPM at 410 nm. Measurements from control reactions without SABP2 were subtracted from each reaction. For non SA-binding conditions, Tris-HCl pH 8.0 (50 mM) was used in placed of Bicine buffer.

[11] = molecular target: T4, SABP2; experiment: Lipase activity assay of purified recombinant SABP2 (pNP palmitate / pNP myristate) with or without SA; format: biochemical, tobacco; design: Full-length tobacco SABP2 was PCR amplified; His6 (N); made in house; host or cells: E. coli BL21 (DE3), vector pET28a

Chain of lipase from Mucor meihei (P19515 95-363): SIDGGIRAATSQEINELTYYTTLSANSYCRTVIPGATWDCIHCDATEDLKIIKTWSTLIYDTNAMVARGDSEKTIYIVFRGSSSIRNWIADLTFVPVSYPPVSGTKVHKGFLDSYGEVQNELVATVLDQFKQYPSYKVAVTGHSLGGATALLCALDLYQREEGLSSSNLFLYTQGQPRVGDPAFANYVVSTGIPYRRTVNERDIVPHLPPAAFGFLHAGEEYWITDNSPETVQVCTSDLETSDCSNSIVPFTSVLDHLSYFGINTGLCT

Structure (SMILES) | Bound [^3H] SA AtSB2L1 [1] | Bound [^3H] SA AtSB2L5 [2] | Bound [^3H] SA AtSB2L9 [3] | Biological Activity of competitor [4] | Bound [^3H] SA SABP2 [5] | induction of SABP2 expression by treatment alone [6] | affinity of SABP2 for BTH relative to SA ([7]; SABP2 isolated from plant extracts, fold greater) | binding of BTH to SABP2 relative to SA [8] | binding to SABP2 (in words) [5] | affinity of SABP2 for SA relative to that between SA and tobacco catalase [9] | stimulation of lipase activity by SA [10] | Kd ([7]; SABP2 from tobacco, reversible binding, read-out: apparent Kd of SA binding to SABP2) | SA binding to SABP2 in Tris buffer (in words) ([5]; 50 mM bicine replaced with 50 mM Tris-HCl pH 8.0) | inhibition of ^3H-SA binding by unlabeled competitor (in words) [5] | stimulation of SABP2 lipase activity by SA ([11]; 1 mM SA, 50 mM Bicine pH 8.0, substrates pNP palmitate, pNP myristate) | stimulation of SABP2 lipase activity by SA under conditions that prevent SA binding ([11]; Tris-HCl pH 8.0 (50 mM) in place of Bicine)
O=C(O)c1c(O)cccc1O [2,6-DHBA, 2,6-dihydroxybenzoic acid] | 36 dpm | 1742 dpm | 1072 dpm | active | 924 dpm | – | – | – | – | – | – | – | – | – | – | –
c1ccc2snnc2c1 [BTH, benzothiadiazole] | – | – | – | – | – | insufficient | approximately 15 fold | about 15 fold | did not bind | – | – | – | – | – | – | –
O=C(O)c1ccccc1O [SA, salicylic acid] | 42 dpm | 121 dpm | 36 dpm | active | 160 dpm | insufficient | – | – | – | 100–150 fold | did not exhibit stimulation | ~90 nM | does not bind | inhibited effectively | 3–6 fold | abolished
O=C(O)c1ccc(O)cc1 [4-HBA, 4-hydroxybenzoic acid] | 65 dpm | 4757 dpm | 3620 dpm | inactive | 95634 dpm | – | – | – | only minimal binding | – | – | – | – | not | – | –
O=C(O)c1cc(Cl)ccc1O [5-CSA, 5-chlorosalicylic acid] | 38 dpm | 64 dpm | 42 dpm | active | 260 dpm | – | – | – | – | – | – | – | – | – | – | –
